Where two headings read alike, the source gives them in different places.
How the values were obtained:
Type in all cases: physicochemical
tapped density = assay: tapped density
bulk density = assay: bulk density
[1] = intrinsic dissolution of amorphous rifaximin against the α Form; conditions: 37±0.5° C., 100 rpm
Procedure: Temperature: 37±0.5° C. Rotation speed: 100 rpm Particle size: Amorphous rifaximin—11 microns • α Form of rifaximin—13 microns

[2] = 15 minutes, 1000 ml 0.1M sodium dihydrogen phosphate monohydrate + 4.5 g sodium lauryl sulphate

SMILES	tapped density (tapped density)	bulk density (bulk density)	intrinsic dissolution profile compared with α Form ([1]; 0.1M sodium dihydrogen phosphate monohydrate + sodium lauryl sulphate)	% Release [1, 2]	% Release ([1]; 30 minutes, same medium)	% Release ([1]; 45 minutes, same medium)	% Release ([1]; 60 minutes, same medium)	% Release ([1]; 120 minutes, same medium)	% Release ([1]; 180 minutes, same medium)	% Release ([1]; 240 minutes, same medium)	% Release ([1]; 360 minutes, same medium)	% Release ([1]; 480 minutes, same medium)	% Release ([1]; 600 minutes, same medium)	% Release ([1]; 720 minutes, same medium)	% Release ([1]; 960 minutes, same medium)	% Release ([1]; 1200 minutes, same medium)	% Release ([1]; 1400 minutes, same medium)	tapped density (tapped density; listed as α Form rifaximin)	bulk density (bulk density; listed as α Form rifaximin)
CO[C@H]1/C=C/O[C@@]2(C)Oc3c(C)c(O)c4c(O)c(c5c(nc6cc(C)ccn65)c4c3C2=O)NC(=O)/C(C)=C\C=C\[C@H](C)[C@H](O)[C@@H](C)[C@@H](O)[C@@H](C)[C@H](OC(C)=O)[C@@H]1C [Amorphous Rifaximin, (2S,16Z,18E,20S,21S,22R,23R,24R,25S,26 S,27S,28E)-5,6,21,23,25-pentahydroxy-27-methoxy-2,4,11,16,20,22,24,26-octamethyl-2,7-(epoxypentadeca-[1,11,13]trienimino)benzofuro[4,5-e]pyrido[1,2-a]-benzimida-zole-1,15(2H)-dione,25-acetate]	0.4 to 0.5 g/mL	0.3 to 0.4 g/mL	better dissolution profile than α Form	1.1%	1.9%	2.9%	3.7%	8.1%	12.6%	16.6%	24.7%	32.0%	39.5%	46.4%	60.4%	72.9%	83.0%		
CO[C@H]1/C=C/O[C@@]2(C)Oc3c(C)c(O)c4c(O)c(c5c(nc6cc(C)ccn65)c4c3C2=O)NC(=O)/C(C)=C\C=C\[C@H](C)[C@H](O)[C@@H](C)[C@@H](O)[C@@H](C)[C@H](OC(C)=O)[C@@H]1C [α Form of Rifaximin, (2S,16Z,18E,20S,21S,22R,23R,24R,25S,26 S,27S,28E)-5,6,21,23,25-pentahydroxy-27-methoxy-2,4,11,16,20,22,24,26-octamethyl-2,7-(epoxypentadeca-[1,11,13]trienimino)benzofuro[4,5-e]pyrido[1,2-a]-benzimida-zole-1,15(2H)-dione,25-acetate, reference compound]				0.8%	1.8%	3.0%	4.4%	11.0%	18.0%	24.6%	38.7%	47.5%	52.7%	56.4%	62.9%	67.8%	72.7%	0.3 to 0.4 g/mL	0.2 to 0.3 g/mL

Reference: patent US10702505B2, “Rifaximin” (CIPLA Limited, priority 2006, dated 2020)
